Measured values reported in ChEMBL document CHEMBL1151707, “Novel 3-phenylpropane-1,2-diamine derivates as inhibitors of aminopeptidase N (APN)” (Bioorg Med Chem, 2008).

Key:
Aminopeptidase N = target: T1, Aminopeptidase N (Sus scrofa, UniProt P15145); test: Inhibition of pig kidney microsome aminopeptidase N by UV-visible spectrophotometer
T1 sequence (P15145 whole entry): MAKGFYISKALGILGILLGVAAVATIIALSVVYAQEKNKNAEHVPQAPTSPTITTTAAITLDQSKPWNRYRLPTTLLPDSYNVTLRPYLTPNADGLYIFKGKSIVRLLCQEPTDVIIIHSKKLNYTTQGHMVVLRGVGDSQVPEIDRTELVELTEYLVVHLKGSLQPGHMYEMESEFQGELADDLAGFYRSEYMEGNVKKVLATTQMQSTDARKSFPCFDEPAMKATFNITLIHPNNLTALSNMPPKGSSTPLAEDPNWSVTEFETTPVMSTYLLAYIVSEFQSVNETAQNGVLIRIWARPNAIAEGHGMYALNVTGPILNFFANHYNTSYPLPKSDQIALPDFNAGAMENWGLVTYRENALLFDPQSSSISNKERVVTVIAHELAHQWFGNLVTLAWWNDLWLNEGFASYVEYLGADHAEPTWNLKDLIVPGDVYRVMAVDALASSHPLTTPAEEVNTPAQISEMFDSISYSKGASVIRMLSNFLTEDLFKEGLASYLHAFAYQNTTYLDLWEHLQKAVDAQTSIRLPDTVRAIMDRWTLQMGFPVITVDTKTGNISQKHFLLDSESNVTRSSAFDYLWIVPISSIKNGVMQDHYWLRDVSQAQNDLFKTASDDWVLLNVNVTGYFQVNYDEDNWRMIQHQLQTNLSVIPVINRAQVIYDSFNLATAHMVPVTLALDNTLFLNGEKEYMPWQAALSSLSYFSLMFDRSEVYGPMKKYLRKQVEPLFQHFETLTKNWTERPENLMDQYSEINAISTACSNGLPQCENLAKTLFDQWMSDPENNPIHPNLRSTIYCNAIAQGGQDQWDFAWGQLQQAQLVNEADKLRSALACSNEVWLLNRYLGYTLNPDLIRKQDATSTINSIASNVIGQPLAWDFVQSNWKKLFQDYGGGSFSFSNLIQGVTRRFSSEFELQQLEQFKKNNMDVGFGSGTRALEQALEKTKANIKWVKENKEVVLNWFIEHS

[1] = target: 72 kDa type IV collagenase (Homo sapiens, UniProt P08253); test: Inhibition of MMP2
Sequence of 72 kDa type IV collagenase (P08253 whole entry): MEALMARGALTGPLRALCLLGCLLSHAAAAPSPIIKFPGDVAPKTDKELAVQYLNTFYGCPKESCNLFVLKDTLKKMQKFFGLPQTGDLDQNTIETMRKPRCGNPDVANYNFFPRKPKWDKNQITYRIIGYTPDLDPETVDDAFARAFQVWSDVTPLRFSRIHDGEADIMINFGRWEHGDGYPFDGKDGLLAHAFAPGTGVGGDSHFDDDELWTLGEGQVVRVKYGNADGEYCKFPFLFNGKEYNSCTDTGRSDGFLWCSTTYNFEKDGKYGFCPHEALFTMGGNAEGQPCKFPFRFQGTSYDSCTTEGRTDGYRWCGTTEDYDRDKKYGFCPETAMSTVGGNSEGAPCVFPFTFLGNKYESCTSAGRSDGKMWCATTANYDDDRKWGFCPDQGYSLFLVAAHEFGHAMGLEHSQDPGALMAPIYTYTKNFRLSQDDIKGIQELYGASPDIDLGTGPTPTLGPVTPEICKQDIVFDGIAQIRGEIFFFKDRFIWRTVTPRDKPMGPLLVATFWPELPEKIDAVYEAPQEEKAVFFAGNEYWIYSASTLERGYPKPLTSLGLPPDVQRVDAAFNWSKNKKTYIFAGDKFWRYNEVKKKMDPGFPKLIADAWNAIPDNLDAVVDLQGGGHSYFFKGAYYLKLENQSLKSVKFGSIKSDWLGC

HL-60 = test: Antiproliferative activity against human HL-60 cells after 48 hrs by MTT assay; type: functional, cell-based; conditions: HL-60, 48 h

C[C@H](N)C(=O)NC[C@H](N)Cc1ccccc1
IC50 (Aminopeptidase N): > 1000 µM
IC50 [1]: 772 µM

NCCCC[C@H](N)C(=O)NC[C@H](N)Cc1ccccc1
IC50 (Aminopeptidase N): 164 µM
IC50 [1]: 99.7 µM

N[C@@H](CNC(=O)CCc1ccccc1)Cc1ccccc1
IC50 (Aminopeptidase N): 290 µM
IC50 [1]: 547 µM

N[C@@H](CNC(=O)Cc1ccccc1)Cc1ccccc1
IC50 (Aminopeptidase N): > 1000 µM
IC50 [1]: 632 µM

N[C@@H](CNC(=O)Cc1ccccc1Nc1c(Cl)cccc1Cl)Cc1ccccc1
IC50 (Aminopeptidase N): > 1000 µM
IC50 [1]: > 1000 µM

N[C@@H](CNC(=O)[C@@H](N)CS)Cc1ccccc1
IC50 (Aminopeptidase N): 21.1 µM
IC50 [1]: 78.8 µM
IC50 (HL-60): 1090 µM

CSCC[C@H](N)C(=O)NC[C@H](N)Cc1ccccc1
IC50 (Aminopeptidase N): 119 µM
IC50 [1]: 112 µM

NCCC(=O)NC[C@H](N)Cc1ccccc1
IC50 (Aminopeptidase N): 409 µM
IC50 [1]: 11.2 µM

CC(C)[C@H](N)C(=O)NC[C@H](N)Cc1ccccc1
IC50 (Aminopeptidase N): 476 µM
IC50 [1]: 151 µM

NC(=O)CC[C@H](N)C(=O)NC[C@H](N)Cc1ccccc1
IC50 (Aminopeptidase N): > 1000 µM
IC50 [1]: 802 µM

CC(C)C[C@H](N)C(=O)NC[C@H](N)Cc1ccccc1
IC50 (Aminopeptidase N): 142 µM
IC50 [1]: 170 µM

N[C@@H](CNC(=O)[C@@H](N)CO)Cc1ccccc1
IC50 (Aminopeptidase N): 33.7 µM
IC50 [1]: 202 µM

N[C@@H](CNC(=O)[C@H](Cc1ccccc1)NC(=O)[C@@H](N)Cc1ccccc1)Cc1ccccc1
IC50 (Aminopeptidase N): 15.5 µM
IC50 [1]: 183 µM
IC50 (HL-60): 630 µM

NCCCCCC(=O)NC[C@H](N)Cc1ccccc1
IC50 (Aminopeptidase N): 164 µM
IC50 [1]: 99.7 µM

NCC(=O)NC[C@H](N)Cc1ccccc1
IC50 (Aminopeptidase N): > 1000 µM
IC50 [1]: 23.5 µM

CC(C)C[C@H](NC(=O)[C@@H](O)[C@H](N)Cc1ccccc1)C(=O)O [UBENIMEX]
IC50 [1]: 162 µM

N[C@@H](CNC(=O)c1cc([N+](=O)[O-])cc([N+](=O)[O-])c1)Cc1ccccc1
IC50 (Aminopeptidase N): 204 µM
IC50 [1]: 101 µM

N[C@@H](CNC(=O)/C=C/c1ccc(O)c(O)c1)Cc1ccccc1
IC50 (Aminopeptidase N): 492 µM
IC50 [1]: 329 µM

N[C@@H](CNC(=O)/C=C/c1ccccc1)Cc1ccccc1
IC50 (Aminopeptidase N): 596 µM
IC50 [1]: 211 µM

N[C@@H](CNC(=O)CCCc1ccccc1)Cc1ccccc1
IC50 (Aminopeptidase N): > 1000 µM
IC50 [1]: 221 µM

NCCC[C@H](N)C(=O)NC[C@H](N)Cc1ccccc1
IC50 (Aminopeptidase N): 50.5 µM
IC50 [1]: 219 µM
